Here are results for 2 molecules from ChEMBL document CHEMBL1268867, “ATPases as drug targets: insights from heat shock proteins 70 and 90” (J Med Chem, 2010).

Test [1] is described as follows: Binding affinity to Hsp70 nucleotide binding domain.
The target in test [2] is Heat shock cognate 71 kDa protein (Homo sapiens, UniProt P11142). The test is described as follows: Binding affinity to human Hsc70 by isothermal calorimetry assay. For orientation: Isothermal titration calorimetry measures the heat released or taken up as one component is titrated into another.
Chain of Heat shock cognate 71 kDa protein (Homo sapiens, UniProt P11142) (P11142 whole entry): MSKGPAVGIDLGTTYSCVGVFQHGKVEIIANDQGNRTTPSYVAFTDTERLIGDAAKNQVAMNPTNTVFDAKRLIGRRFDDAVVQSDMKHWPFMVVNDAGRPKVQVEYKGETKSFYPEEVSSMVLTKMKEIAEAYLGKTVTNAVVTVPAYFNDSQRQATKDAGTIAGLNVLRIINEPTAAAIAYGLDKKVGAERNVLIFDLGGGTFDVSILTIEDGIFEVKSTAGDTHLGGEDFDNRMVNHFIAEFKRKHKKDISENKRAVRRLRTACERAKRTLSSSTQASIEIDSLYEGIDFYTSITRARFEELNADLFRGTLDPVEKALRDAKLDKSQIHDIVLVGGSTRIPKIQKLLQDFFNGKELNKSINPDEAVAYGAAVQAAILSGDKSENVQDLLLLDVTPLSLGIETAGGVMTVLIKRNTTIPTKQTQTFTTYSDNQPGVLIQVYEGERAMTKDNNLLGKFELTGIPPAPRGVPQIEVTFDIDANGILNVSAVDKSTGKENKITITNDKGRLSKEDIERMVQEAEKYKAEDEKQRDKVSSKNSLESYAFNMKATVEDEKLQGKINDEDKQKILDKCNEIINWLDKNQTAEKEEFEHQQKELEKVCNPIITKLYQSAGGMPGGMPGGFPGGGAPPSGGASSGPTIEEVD
Test [3] deals with Heat shock cognate 71 kDa protein (Bos taurus, UniProt P19120). Description: Binding affinity to bovine Hsc70 by filter binding assay.
Chain of Heat shock cognate 71 kDa protein (Bos taurus, UniProt P19120) (P19120 whole entry): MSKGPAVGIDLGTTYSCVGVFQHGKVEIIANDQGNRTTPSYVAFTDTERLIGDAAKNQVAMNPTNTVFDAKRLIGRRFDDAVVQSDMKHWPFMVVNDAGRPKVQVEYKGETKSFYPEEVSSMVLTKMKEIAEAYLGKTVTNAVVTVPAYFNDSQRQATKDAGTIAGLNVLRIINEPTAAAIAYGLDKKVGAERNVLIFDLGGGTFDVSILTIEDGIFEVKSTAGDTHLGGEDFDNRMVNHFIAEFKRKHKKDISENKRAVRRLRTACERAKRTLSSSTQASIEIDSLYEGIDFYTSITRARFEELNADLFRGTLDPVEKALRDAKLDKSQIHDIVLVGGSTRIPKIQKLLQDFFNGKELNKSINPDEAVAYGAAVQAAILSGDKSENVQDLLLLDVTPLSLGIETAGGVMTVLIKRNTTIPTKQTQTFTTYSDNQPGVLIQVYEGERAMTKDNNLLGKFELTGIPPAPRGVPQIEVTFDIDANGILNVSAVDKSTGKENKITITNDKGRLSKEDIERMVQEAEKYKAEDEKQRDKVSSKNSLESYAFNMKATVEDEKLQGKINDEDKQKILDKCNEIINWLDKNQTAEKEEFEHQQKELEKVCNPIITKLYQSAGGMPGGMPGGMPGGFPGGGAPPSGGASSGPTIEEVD

By Kd is commonly meant the free concentration of one partner at which half of the binding sites on the other are occupied at equilibrium, for simple one-to-one binding. Lower therefore signals higher affinity.

As for `N#Cc1ccc(COC[C@H]2O[C@@H](n3c(NCc4ccc(Cl)c(Cl)c4)nc4c(N)ncnc43)[C@H](O)[C@@H]2O)cc1`, in test [1], binding was put at a Kd of 300 nM.
For the molecule `Nc1ncnc2c1ncn2[C@@H]1O[C@H](COP(=O)(O)OP(=O)(O)O)[C@@H](O)[C@H]1O` [ADENOSINE DIPHOSPHATE], the Kd in test [2] came out at 260 nM; in test [3], 110 nM.
